Publication PMC4159583, “Evaluation of the Interaction between Phosphohistidine Analogues and Phosphotyrosine Binding Domains” (Chembiochem, 2014)
Read-outs that look alike come from different tables or passages of the source. *1 amine or outer side, *2 acyl side, *3 side chain or, on linkers, in order; H or OH if unused. Where a SMILES comes first, the peptide text is derived from it. [ ]: non-standard residue; d: D form. The star is where a group is joined. X2 = O=C(O)c1cc(NC(=S)*)ccc1-c1c2ccc(=O)cc-2oc2cc(O)ccc12; X1 = O=C([C@H](Cn1cc(P(=O)(O)O)nn1)N[*:1])[*:2]; pY = N[C@@H](Cc1ccc(OP(=O)(O)O)cc1)C(=O)O; phTz = not defined here; GABA = NCCCC(=O)O

How the values were obtained:
His6-(Grb2-SH2) [1] = biological target: T1, His6-(Grb2-SH2) (Homo sapiens, UniProt P62993); test: Competition fluorescence anisotropy/polarisation assay (displacement of 17); type: binding; conditions: for competition / displacement of 17: 200 nM 17 and 175 nM Grb2-SH2, serial dilutions of peptide, pH 7.4
T1 construct: His6-(Grb2-SH2), 13132 Da; made in house
Method: (§1) Fluorescence polarization experiments
(§2) Peptides were prepared as described above. Fluorescence polarization assays were carried out in 96 well plates (160 µL per well). All experiments were performed in 50 mM Tris.HCl, 100 mM NaCl pH 7.4 (ITC buffer). 2.5-fold or 3-fold dilution series of each peptide were routinely prepared before mixing in the plate well before data acquisition using a Perkin Elmer EnVision™ 2103 MultiLabel plate reader
(§3) Determination of binding of FITC-pY peptide 17 to Grb2-SH2 domain
(§4) Grb2-SH2 was serially diluted through ITC buffer containing 100 nM peptide 17 in triplicate and the fluorescence measured in parallel and perpendicular channels. The instrumental G factor for each experiment was approximated by assuming the anisotropy r = 0 for the free peptide. For each data point the total intensity I and anisotropy r were then determined by application of equations 3 and 4 below. Data were fit using a logistic model to obtain limiting maximum and minimum values […]
(§5) upon binding of the protein and the fraction bound was therefore calculated using equation 5 where λ = Ibound/Ifree. The fraction […]
(§6) IT = Iparallel+ 2GI perpendicular (3) r = Iparallel− GI perpendicular (4)
(§7) F = r − rmin where R = Ibound (5) […]
Competition binding assay […]
fitting using a logistic model to obtain an IC50 value.

Grb2 SH2 domain [2] = conditions: cited from earlier work
Text: We envisaged producing suitable peptides by Fmoc-SPPS and investigating the interaction with proteins known to bind to phosphotyrosine. Our initial test system was the prototypical SH2 phosphotyrosine binding domain from Grb2.[19] […] A)15% SDS-PAGE: Lane 1 - MW markers, 2 & 3 –flow through Ni-NTA column of soluble fraction, 4 & 5 – elution of soluble fraction from Ni-NTA column, 6 – MW markers, 7 – insoluble fraction. B) 15% SDS-PAGE: Lane 1 - MW markers, 2 - insoluble fraction ...

[3] = biological target: T2, full-length Grb2 purified as a glutathione S-transferase (GST) fusion (GST-Grb2) (Homo sapiens, UniProt P62993); test: ITC of peptides into full-length GST-Grb2; type: binding
T2 construct: made in house; host or cells: E. coli BL21-Gold (DE3)
Text: Protein expression and purification
Isothermal Titration Calorimetry (ITC)

[4] = pKa determination by 31P NMR pH titration; type: physicochemical
Method: NMR data were collected using a Bruker DPX300 and analysed using MestReNova software. Experiments were carried out 121 MHz using peptide S1 or S2 at a concentration of 10 mM in 10% D2O in H2O (v/v, 2 mL) with an external standard of tris-carboxyethyl phosphine (TCEP) in H2O with a δ value set at 16.30 ppm.5 The pH of the solution was measured and adjusted by addition of 100 mM NaOH in 10% D2O in H2O (v/v) in portions of 5 µL. At higher pH values significant signal-broadening was observed, which precluded accurate determination of chemical shifts and such results were not included in calculations to determine pKa’s. The pKa was determined by fitting the observed chemical shift data to a Boltzmann distribution yielding pKas of ~5.8 for pTyr and 5.95 for the phosphotriazole analogue.
Equation )/(1 + exp((x-x0)
)/(1 + exp((x-x0) Chi-Sqr
Reduced Chi-S 0.00117 Value Standard Error
Figure S10. pH titrations of peptides S1 and S2 containing phosphotyrosine (S1, left) and phosphonotriazole (S2, right) 5Determined by a preliminary experiment using TCEP with an external standard of phosphoric acid (with a shift assigned as 0.00 ppm).
(also on this page, place not known: DPX3 00 software . usin g D 2O H 2O ppm. ad justed H 2O ( v/v) 5 signal-broa dening includ ed 31 P Chemical /ppm 0.01607 0.4 31 P Chemical shift /ppm shift)

His6-(Grb2-SH2) [5] = biological target: T1, His6-(Grb2-SH2); test: Fluorescence anisotropy direct binding of FITC-pY peptide 17; conditions: 100 nM peptide 17, Grb2-SH2 serially diluted, triplicate; 50 mM Tris.HCl, 100 mM NaCl pH 7.4; fraction bound corrected for quenching; read-out: binding constant (Kd) by fluorescence anisotropy
Method: as §1, §2, §3, §4, §5, §6, §7
Competition binding assay
Grb2-SH2. […]

[6] = biological target: T3, monomeric His6-(Grb2-SH2), Grb2 SH2 domain (Homo sapiens, UniProt P62993); test: ITC of peptides into monomeric His6-(Grb2-SH2) (late-eluting SEC peak 2); type: binding; conditions: for ITC outcome, standard conditions: final ratio of ligand to protein 2:1
T3 construct: His6-(Grb2-SH2), 13132 Da; made in house
Text: (3 pictures or pasted objects on this page, not shown here)
(5 pictures or pasted objects on this page, not shown here)

Grb2 SH2 domain [7] = test: Literature affinities for Grb2-SH2; type: binding; conditions: cited tripeptide Kd compared with own Kd of 11

T3 sequence (P62993 with tags, fused parts or gaps): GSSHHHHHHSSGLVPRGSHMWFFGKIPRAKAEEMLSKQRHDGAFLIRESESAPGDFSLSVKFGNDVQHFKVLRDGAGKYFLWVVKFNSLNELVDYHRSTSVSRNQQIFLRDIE

AcHN-Ser-His-Val-Asn-Val-Gln-NH2 [compound 19]
competition / displacement of 17 (His6-(Grb2-SH2) [1]): No competition

CC(=O)N[C@@H](CO)C(=O)N[C@@H](Cc1ccc(OP(=O)(O)O)cc1)C(=O)N[C@H](C(=O)N[C@@H](CC(N)=O)C(=O)N[C@H](C(=O)N[C@@H](CCC(N)=O)C(N)=O)C(C)C)C(C)C [compound 11, AcHN-Ser-pTyr-Val-Asn-Val-Gln-NH2, reference compound] (Ac-S[pY]VNVQ-NH2)
IC50 (His6-(Grb2-SH2) [1]): 442 ± 80 nM
competition / displacement of 17 (His6-(Grb2-SH2) [1]): Binding (displacement of 17) was observed
Kd (Grb2 SH2 domain [2]; literature value for Shc-derived hexapeptide, read-out: Kd for Grb2 SH2 domain): 200 nM
Kd [3]: 196 ± 21 nM

C[C@H](NC(=O)CNC(=O)[C@H](C)NC(=O)CNC(=O)[C@H](Cc1ccc(OP(=O)(O)O)cc1)NC(=O)CNC(=O)[C@H](C)NC(=O)CNC(=O)[C@H](C)NC(=O)CNC(=O)[C@@H](N)CS)C(=O)NCC(=O)O [S1, H-Cys-Gly-Ala-Gly-Ala-Gly pTyr-Gly-Ala-Gly-Ala-Gly-OH] (H-CGAGAG[pY]GAGAG-OH)
pKa ([4]; 31P NMR 121 MHz, peptide 10 mM in 10% D2O in H2O, titrated with 100 mM NaOH, Boltzmann fit of chemical shift): ~ 5.8

AcHN-Ser-pSer-Val-Asn-Val-Gln-NH2 [compound 20]
competition / displacement of 17 (His6-(Grb2-SH2) [1]): No competition

CC(C)[C@H](NC(=O)[C@H](CC(N)=O)NC(=O)[C@@H](NC(=O)[C@H](Cc1ccc(OP(=O)(O)O)cc1)NC(=O)[C@H](CO)NC(=O)CCCNC(=S)Nc1ccc(-c2c3ccc(=O)cc-3oc3cc(O)ccc23)c(C(=O)O)c1)C(C)C)C(=O)N[C@@H](CCC(N)=O)C(N)=O [compound 17, FITC-Gaba-Ser-pTyr-Val-Asn-Val-Gln-NH2] ({X2-GABA}-S[pY]VNVQ-NH2)
Kd (His6-(Grb2-SH2) [5]): 283 ± 18 nM

N[C@@H](Cc1ccc(OP(=O)(O)O)cc1)C(=O)O [compound 4, phosphotyrosine]
pKa ([4]; NMR titrations (of peptides containing the residue), phosphoryl group): 5.8

AcHN-Ser-phTz-Val-Asn-Val-Gln-NH2 ({Ac-Ser-phTz}-VNVQ-NH2; reading uncertain; also: printed as AcHN-Ser-phTz-Val-Asn-Val-Gln-NH2) [compound 15]
ITC binding outcome, low c-value ([6]; low c-value conditions, final ratio of ligand to protein 8:1, indistinguishable from titration into buffer): no binding
ITC outcome, standard conditions [6]: inconclusive
competition / displacement of 17 (His6-(Grb2-SH2) [1]): No competition
ITC titration outcome ([3]; ITC, peptide titrated into GST-Grb2, 25 °C, ITC buffer pH 7.4): inconclusive

AcHN-Ser-Tyr-Val-Asn-Val-Gln-NH2 [compound 18]
competition / displacement of 17 (His6-(Grb2-SH2) [1]): No competition

AcHN-Ser-pThr-Val-Asn-Val-Gln-NH2 [compound 21]
competition / displacement of 17 (His6-(Grb2-SH2) [1]): No competition

CC(=O)N[C@@H](CO)C(=O)N[C@@H](Cn1cc(P(=O)(O)O)nn1)C(=O)N[C@H](C(=O)N[C@@H](CC(N)=O)C(=O)N[C@H](C(=O)N[C@@H](CCC(N)=O)C(N)=O)C(C)C)C(C)C [compound 16, AcHN-Ser-pTz-Val-Asn-Val-Gln-NH2] (Ac-S[X1]VNVQ-NH2)
ITC outcome, standard conditions [6]: inconclusive
competition / displacement of 17 (His6-(Grb2-SH2) [1]): Binding (displacement of 17) was observed

H-Cys-Gly-Ala-Gly-Ala-Gly pTz-Gly-Ala-Gly-Ala-Gly-OH [S2]
pKa [4]: 5.95

AcHN-pTyr-Val-Asn-NH2 [literature control tripeptide for Grb2-SH2]
fold lower affinity for monomeric Grb2-SH2 than hexapeptide 11 (Grb2 SH2 domain [7]): ~ 5 fold
Kd (Grb2 SH2 domain [2]; literature control tripeptide, main article, read-out: Kd for monomeric Grb2-SH2): 1600 nM
